The results in this text go back to patent US20180258180A1, “COMBINATION THERAPY INVOLVING ANTIBODIES AGAINST CLAUDIN 18.2 FOR TREATMENT OF CANCER” (Ganymed Pharmaceuticals AG, priority 2012, published 2018).

The subject of data set [1] is NCI-N87~CLDN18.2 xenograft tumors. Nature of the data set: NCI-N87~CLDN18.2 gastric carcinoma xenografts, IMAB362 immunotherapy. The note with it: 800 μg i.v. weekly. The data set is classed as in vivo, nude mice. How it is done:
NCI-N87˜CLDN18.2 xenograft tumors were inoculated subcutaneously by injection of 1×10^7 NCI-N87˜CLDN18.2 cells into the flank of 8 nude mice (female, 6 weeks old) per treatment group. […] Intravenous administration was continued weekly for the whole observation time. Tumor size and animal health was monitored semi-weekly. […] The size of s.c. tumors was measured twice weekly (mean+SEM, ***p<0.001). […] Mice were sacrificed, when tumor reached a volume of 1400 mm^3.

The nature of data set [2]: Phase I clinical study, single intravenous administration. The data set is classed as in vivo, human. From the text:
IMAB362 is in early clinical testing. A phase I clinical study has been conducted in human. […] In an ongoing phase IIa clinical study IMAB362 is given repetitively.

Data set [3] deals with HEK293~CLDN18.2 transfectants. The experiment in a line: Early treatment of HEK293~CLDN18.2 tumor xenografts. The class given is in vivo, nude mice. To be noted: 200 μg twice per week for 6 weeks. The source says:
Moreover, advanced tumor treatment experiments were initiated up to 9 days after tumor cell inoculation when tumors had reached volumes of about 60-120 mm^3.
Nude mice were subcutaneously inoculated with 1×10^7 HEK293˜CLDN18.2 transfectants. Treatment of 10 mice per group started 3 days after tumor inoculation. […] Not only time to death was prolonged, but 4 of 10 mice survived the entire observation period of 210 days.

Data set [4] can be described thus: Repeated dose toxicity study in mice. The note with it: weekly administration for 3 months, highest dose levels 400 mg/kg. The data set is classed as in vivo. From the text:
This compartimentalization is lost upon malignant transformation rendering the epitope drugable by IMAB362.

In data set [5] the test system is NUGC-4~CLDN18.2 xenografts. The experiment in a line: NUGC-4~CLDN18.2 xenografts, IMAB362 immunotherapy. The note with it: mouse, in vivo. The arrangement: species or system mice.

As to “IMAB362: chimeric IgG1 antibody directed against CLDN18.2, developed by Ganymed Pharmaceuticals AG”, in data set [1], the survival time entry is reported as “significantly (p<0.05) longer survival time”. The tumor growth entry in data set [1] (start 5 days after inoculation, versus saline) is recorded as “inhibited highly significant (p<0.001)”. Further, the measured tumor markers entry in data set [2] (in one patient, within 4 weeks after treatment) is on record as “decreased significantly”. For the same substance, in data set [2] (single i.v. administration, 33-1000 mg/m^2, observed for 28 days), the tolerability in patients entry is “very well tolerated”. Besides, the “mice surviving the entire observation period of 210 days” value in data set [3] is 4 of 10. Further, the survival result in data set [3] (start 3 days after inoculation) was “survival benefit”. For the same substance, the “tolerability of repeated doses i.v.” value in data set [4] is “well tolerated”. For the same substance, in data set [5], the survival result is “significantly (p<0.05) longer survival” and the “tumor sizes at day 14 of treatment” value was “significant (p<0.05) smaller tumor sizes”.
